Data set [1] has as its system Mtb. H37Ra pMV261/pVV16. The experiment in a line: microbe, parasite or virus in culture. In kind it is cell-based, Mycobacterium tuberculosis.
A short description of data set [2]: Solubility in the cytotoxicity concentration range. It is filed as physicochemical. As to conditions: cytotoxicity assay medium, DMSO max 1% v/v. The protocol: The cells were seeded in a density 15,000 cells per well in a 96-well plate. The next day the cells were treated with each of the tested substances at a broad range of concentrations (1–1000 µM) in triplicates; the compounds were dissolved in DMSO (maximal incubation concentration of DMSO was 1% v/v). The controls representing 100% cell viability, 0% cell viability (the cells treated with 10% DMSO), no cell control and vehiculum controls were incubated in parallel, also as triplicates. After 24 h of incubation in a humidified atmosphere containing 5% CO2 at 37 °C, the reagent from the kit CellTiter 96 AQueous One Solution Cell Proliferation Assay (CellTiter 96; PROMEGA, Fitchburg, WI, USA) was added. After 2 h incubation at 37 °C, absorbance of samples was recorded at 490 nm (TECAN, Infinita M200, Grödig, Austria). A standard toxicological parameter IC50 was calculated by nonlinear regression from a semilogarithmic plot of incubation concentration versus percentage of absorbance relative to untreated controls using GraphPad Prism 8 software (GraphPad Software, Inc., La Jolla, CA, USA).
Cytotoxicity was quantified using the standard parameter IC50 (Figure 3).

In data set [3] the test system is Mycobacterium kansasii 6509/96 (clinical isolate). The experiment in a line: MIC micromethod in Šula's medium, M. kansasii. It is filed as cell-based. As to conditions: Mycobacterium kansasii, Table 1.
For data set [4], the system named is Mycobacterium avium 330/88. The experiment in a line: MIC micromethod in Šula's medium, M. avium. It is filed as cell-based. As to conditions: Mycobacterium avium.
The subject of data set [5] is Mtb. H37Ra pVV16-katGsmeg. Description: microbe, parasite or virus in culture. It is filed as cell-based. As to conditions: Mycobacterium tuberculosis, 672 h, read-out: MIC H37Ra pVV16-katGsmeg.
Data set [6] is described as follows: Cytotoxicity, CellTiter 96 (MTS) assay. As to conditions: human, Cytotoxicity for HepG2 cells, IC50, 24 h incubation, 1–1000 µM.
The test system of data set [7] is Mtb. H37Ra pMV261-inhA. The experiment in a line: microbe, parasite or virus in culture. It is filed as cell-based, Mycobacterium tuberculosis.
In data set [8] the test system is Mycobacterium tuberculosis strain 331/88 (i.e., H37Rv). Description: MIC micromethod in Šula's medium, drug-susceptible Mtb. As to conditions: Mycobacterium tuberculosis, H37RV. It is filed as cell-based.

≈ marks a conversion by molar mass, not a printed value. Where two headings read alike, the source gives them in different places. Where only a bound is given, the exact number is not on record here.

We go through one compound from PMC8703412 (Pharmaceuticals, 2021).

`C/C(=N\NC(=O)c1ccncc1)C(=O)Oc1cc(Cl)ccc1Oc1ccc(Cl)cc1Cl` [3o, 5-Chloro-2-(2,4-dichlorophenoxy)phenyl (E)-2-(2-isonicotinoylhydrazineylidene)propanoate] returned a melting point of 153 to 155 °C. Besides, the “MIC H37Ra pMV261/pVV16” value in data set [1] stood at 0.325. Moreover, in [1] (Mycobacterium tuberculosis, H37RA, 672 h, read-out: MIC H37Ra pMV261/pVV16), the MIC came to 0.325 µM (≈ 0.156 µg/mL). Further, the “solubility in the concentration range of 1–1000 μM” value in [2] is given as “without any solubility problem”. Further, in [3] (168 h, 7 d incubation, read-out: MIC M. kansasii 6509/96 7 d), the MIC is 4 µM (≈ 1.91 µg/mL). Further, in data set [3] (336 h, 14 d incubation, read-out: MIC M. kansasii 6509/96 14 d), the MIC is 4 µM (≈ 1.91 µg/mL). Moreover, the MIC in [3] (504 h, 21 d incubation, read-out: MIC M. kansasii 6509/96 21 d) came to 8 µM (≈ 3.83 µg/mL). The MIC in data set [4] (330/88, 336 h, 14 d incubation, Table 1, read-out: MIC M. avium 330/88 14 d) is 64 µM (≈ 30.6 µg/mL). Besides, the MIC in [4] (330/88, 504 h, 14 and 21 d, read-out: MIC for M. avium) is 32 to 64 µM (≈ 15.3 to 30.6 µg/mL). For the same compound, the MIC in [4] (330/88, 504 h, 21 d incubation, Table 1, read-out: MIC M. avium 330/88 21 d) was 64 µM (≈ 30.6 µg/mL). For the same compound, the MIC in data set [5] was 0.125 µM (≈ 0.0598 µg/mL). In [6], this compound registered an IC50 at 24 h of 211 µM. For the same compound, the MIC H37Ra pMV261-inhA in data set [7] was found to be 6 µM. Further, the MIC in [7] (Mycobacterium tuberculosis, H37RA, 672 h, read-out: MIC H37Ra pMV261-inhA) amounted to 6.25 µM (≈ 2.99 µg/mL). For the same compound, the MIC in [8] (336 h, 14 d incubation, esters, Table 1, read-out: MIC Mtb. 331/88 14 d) is no more than 0.125 µM. Further, in data set [8] (504 h, 21 d incubation, esters, Table 1, read-out: MIC Mtb. 331/88 21 d), the MIC is no more than 0.125 µM. Also, the MIC in data set [8] (Table 4, read-out: MIC H37Rv) was determined as 0.125 µM (≈ 0.0598 µg/mL).
